{
  "source": "paper PMC9652379",
  "about": "“Safety evaluations of a synthetic antimicrobial peptide administered intravenously in rats and dogs” (Scientific Reports, 2022)",
  "key": {"[1]": {"test": "Toxicokinetics in rats, 4 weeks daily iv slow bolus", "type": "in vivo, rat", "settings": "for AUC(0-t) / Cmax / tmax: iv", "method": "SET-M33 was administered intravenously as a slow bolus to Sprague Dawley rats once daily for 4 weeks at 0 (vehicle only), 5, 9 and 15 mg/kg/day (control group 3 animals/sex, treated groups 6 animals/sex). Blood samples were taken on day 1 and day 28. […] Mean plasma SET-M33 exposure increased in parallel with dose in males and females. […] Mean time to maximum plasma SET-M33 concentration (tmax) was 5 min post-dose for both times and sexes as expected for intravenous bolus administration. […] On day 28, female intermediate dose AUC0-t ratio was 1.7 times the theoretical ratio.\nBlood samples were drawn from the retro-orbital sinus under light isoflurane anaesthesia for determination of plasma SET-M33 levels. The samples were taken on days 1 and 28 of treatment at the following times: control group: pre-dose and 30 min; 5, 9 and 15 mg/kg/day-group: pre-dose, 5, 15, 30, 60 min and 24 h after administration. Blood samples were collected into polypropylene test tubes containing lithium heparin anticoagulant and kept at room temperature for no longer than 60 min until centrifuging (1600 g for 10 min at 2–8 °C). The plasma obtained from each sample was transferred to a fresh polypropylene test tubes, immediately frozen in dry ice and stored at − 20 °C ± 5. Plasma concentrations of SET-M33 were measured by a previously validated LC–MS/MS method. Toxicokinetic parameters were determined for mean plasma concentrations at each dose level and time point, according to the validated method and with WinNonlin software, version 6.3, in the Phoenix Suite version 1.3 (Pharsight Corporation, Mountain View, CA, USA)."}, "Sprague Dawley rats": {"test_system": "Sprague Dawley rats", "test": "Dose range finding in rats: haematology, clinical biochemistry, urinalysis", "type": "in vivo, rat", "settings": "female rats, 7 days, mean ± SD", "method": "Clinical haematology, biochemistry and urinalysis parameters were evaluated in animals in Phase II at the end of the treatment period. A complete list of parameters is reported in Materials and Methods. Administration of SET-M33 at 10 and 20 mg/kg/day for 7 days caused a statistically significant decrease of reticulocytes in males and females. […] There were significant differences in other parameters, such as glucose (males at 10 and 20 mg/kg/day), cholesterol (males at 20 mg/kg/day), triglycerides (females at 20 mg/kg/day), electrolytes, total protein and albumin (males at 20 mg/kg/day). Increased urine volume and lower specific gravity compared to the control group was recorded in both sexes at both doses. […]\nBlood samples were drawn from the retro-orbital plexus of all animals under light isoflurane anaesthesia. […] The following parameters were determined using an ADVIA 120 haematology analyser (Siemens Healthcare): Red blood cell count (RBC), haemoglobin (Hb), haematocrit (Hct), mean corpuscular volume (MCV), mean corpuscular haemoglobin (MCH), mean corpuscular haemoglobin concentration (MCHC), reticulocyte count (absolute and relative) (Retic), platelet count (Plt), total leukocyte count (WBC), neutrophils (N), lymphocytes (L), monocytes (M), eosinophils (E), basophils (B), large unstained cells (LUC). […]"}, "P. aeruginosa": {"test_system": "P. aeruginosa", "settings": "cited from earlier work"}, "[2]": {"settings": "female, Sprague Dawley, rat, in vivo, 5 mg/kg/day"}, "[3]": {"settings": "male, Sprague Dawley, rat, in vivo, 5 mg/kg/day"}, "[4]": {"settings": "male, Sprague Dawley, rat, in vivo, 9 mg/kg/day"}, "[5]": {"settings": "male, Sprague Dawley, rat, in vivo, 15 mg/kg/day"}},
  "note": "Positions of bridges follow the written chain, without caps; N, C: chain ends. Non-standard residues stand in square brackets, D forms with d. Residues, ends and D or L forms follow the SMILES beside them. Chains are numbered I, II in the order given. βAla = NCCC(=O)O",
  "data": [
    {"compound": "CC[C@H](C)[C@H](NC(=O)[C@H](CCCCN)NC(=O)[C@@H](N)CCCCN)C(=O)N[C@@H](CCCNC(=N)N)C(=O)N[C@H](C(=O)N[C@@H](CCCNC(=N)N)C(=O)N[C@@H](CC(C)C)C(=O)N[C@@H](CO)C(=O)N[C@@H](C)C(=O)NCCCC[C@H](NC(=O)[C@H](C)NC(=O)[C@H](CO)NC(=O)[C@H](CC(C)C)NC(=O)[C@H](CCCNC(=N)N)NC(=O)[C@@H](NC(=O)[C@H](CCCNC(=N)N)NC(=O)[C@@H](NC(=O)[C@H](CCCCN)NC(=O)[C@@H](N)CCCCN)[C@@H](C)CC)C(C)C)C(=O)NCCCC[C@H](NC(=O)[C@H](CCCCNC(=O)[C@H](C)NC(=O)[C@H](CO)NC(=O)[C@H](CC(C)C)NC(=O)[C@H](CCCNC(=N)N)NC(=O)[C@@H](NC(=O)[C@H](CCCNC(=N)N)NC(=O)[C@@H](NC(=O)[C@H](CCCCN)NC(=O)[C@@H](N)CCCCN)[C@@H](C)CC)C(C)C)NC(=O)[C@H](C)NC(=O)[C@H](CO)NC(=O)[C@H](CC(C)C)NC(=O)[C@H](CCCNC(=N)N)NC(=O)[C@@H](NC(=O)[C@H](CCCNC(=N)N)NC(=O)[C@@H](NC(=O)[C@H](CCCCN)NC(=O)[C@@H](N)CCCCN)[C@@H](C)CC)C(C)C)C(=O)NCCC(=O)O)C(C)C", "note": "[SET-M33] (I: H-KKIRVRLSAKK[βAla]-OH / II: H-KKIRVRLSAK / III: H-KKIRVRLSA / IV: H-KKIRVRLSA; amide I:10-IV:C, I:11-II:C, II:10-III:C (inferred); N-terminus and C-terminus assumed)", "values": [
      {"measurement": "AUC(0-t)", "setting": "[1]; [2]", "value": 1218, "unit": "ng·h/mL"},
      {"measurement": "Cmax", "setting": "[1]; [2]", "value": 4103, "unit": "ng/mL"},
      {"measurement": "AUC(0-t)", "setting": "[1]; female, Sprague Dawley, rat, in vivo, 5 mg/kg/day, AUC0-t", "value": 663, "unit": "ng·h/mL"},
      {"measurement": "Cmax", "setting": "[1]; female, Sprague Dawley, rat, in vivo, 5 mg/kg/day, Cmax", "value": 2110, "unit": "ng/mL"},
      {"measurement": "AUC(0-t)", "setting": "[1]; [3]", "value": 938, "unit": "ng·h/mL"},
      {"measurement": "Cmax", "setting": "[1]; [3]", "value": 3017, "unit": "ng/mL"},
      {"measurement": "tmax", "setting": "[1]; [3]", "value": 5, "unit": "min"},
      {"measurement": "AUC(0-t)", "setting": "[1]; male, Sprague Dawley, rat, in vivo, 5 mg/kg/day, AUC0-t", "value": 692, "unit": "ng·h/mL"},
      {"measurement": "Cmax", "setting": "[1]; male, Sprague Dawley, rat, in vivo, 5 mg/kg/day, Cmax", "value": 2230, "unit": "ng/mL"},
      {"measurement": "AUC(0-t)", "setting": "[1]; [4]", "value": 1819, "unit": "ng·h/mL"},
      {"measurement": "Cmax", "setting": "[1]; [4]", "value": 5890, "unit": "ng/mL"},
      {"measurement": "tmax", "setting": "[1]; [4]", "value": 5, "unit": "min"},
      {"measurement": "AUC(0-t)", "setting": "[1]; male, Sprague Dawley, rat, in vivo, 9 mg/kg/day, AUC0-t", "value": 1430, "unit": "ng·h/mL"},
      {"measurement": "Cmax", "setting": "[1]; male, Sprague Dawley, rat, in vivo, 9 mg/kg/day, Cmax", "value": 4560, "unit": "ng/mL"},
      {"measurement": "AUC(0-t)", "setting": "[1]; [5]", "value": 2734, "unit": "ng·h/mL"},
      {"measurement": "Cmax", "setting": "[1]; [5]", "value": 8170, "unit": "ng/mL"},
      {"measurement": "tmax", "setting": "[1]; [5]", "value": 5, "unit": "min"},
      {"measurement": "AUC(0-t)", "setting": "[1]; male, Sprague Dawley, rat, in vivo, 15 mg/kg/day, AUC0-t", "value": 2240, "unit": "ng·h/mL"},
      {"measurement": "Cmax", "setting": "[1]; male, Sprague Dawley, rat, in vivo, 15 mg/kg/day, Cmax", "value": 6040, "unit": "ng/mL"},
      {"measurement": "mean tmax", "setting": "[1]; rat, in vivo", "value": 5, "unit": "min"},
      {"measurement": "quantifiable plasma concentrations until, post-dose", "setting": "[1]; rat, in vivo", "value": 1, "unit": "h"},
      {"measurement": "intermediate dose AUC0-t ratio relative to the theoretical ratio", "setting": "[1]; rat, in vivo, 9 mg/kg/day", "value": 1.7, "unit": "times"},
      {"measurement": "tmax", "setting": "[1]; rat, in vivo, 5 mg/kg/day", "value": 5, "unit": "min"},
      {"measurement": "tmax", "setting": "[1]; rat, in vivo, 9 mg/kg/day", "value": 5, "unit": "min"},
      {"measurement": "tmax", "setting": "[1]; rat, in vivo, 15 mg/kg/day", "value": 5, "unit": "min"},
      {"measurement": "mean AUC0-t ratio, low vs. intermediate dose (theoretical ratio 1.8)", "setting": "[1]; rats, 5 vs 9 mg/kg/day, day 1", "value": 2},
      {"measurement": "mean Cmax ratio, low vs. intermediate dose (theoretical ratio 1.8)", "setting": "[1]; rats, 5 vs 9 mg/kg/day, day 1", "value": "1.7–2"},
      {"measurement": "mean AUC0-t ratio, low vs. high dose (theoretical ratio 3)", "setting": "[1]; rats, 5 vs 15 mg/kg/day, day 1", "value": "2.9–3.2"},
      {"measurement": "mean Cmax ratio, low vs. high dose (theoretical ratio 3)", "setting": "[1]; rats, 5 vs 15 mg/kg/day, day 1", "value": 2.7},
      {"measurement": "Phos, inorganic phosphorus", "setting": "Sprague Dawley rats; 10 mg/kg/day iv", "value": "1.96 ± 0.187", "unit": "mmol/L"},
      {"measurement": "Phos, inorganic phosphorus", "setting": "Sprague Dawley rats; 20 mg/kg/day iv", "value": "2.05 ± 0.26", "unit": "mmol/L"},
      {"measurement": "MIC50", "setting": "P. aeruginosa", "value": 1.4, "unit": "µM"},
      {"measurement": "MIC90", "setting": "P. aeruginosa", "value": 1.4, "unit": "µM"}
    ]}
  ]
}
